In this test the target is T1, HNRNPK (Homo sapiens, UniProt P61978).
T1 construct: GST-HNRNPK
In words: surface plasmon resonance (Biacore […]), RNA-saturated GST-HNRNPK vs GST; a second estimate vs GST-HNRNPI gave Kd […]. The test is classed as binding.

The term Kd denotes a measure of binding affinity in units of concentration.

Consider `CN(C)CCCOc1c(Br)cc(/C=C/C(=O)NCCCOc2c(Br)cc(CCN(C)C)cc2Br)cc1Br` [PA, Psammaplysene A], for which the Kd is 77.3 µM.

These data come from article PMC5577601, “The Neuroprotective Marine Compound Psammaplysene A Binds the RNA-Binding Protein HNRNPK” (Marine Drugs, 2017).
